Experimental data: patent US20030237103A1, “Methods and compositions for pharmacological and toxicological evaluation of test agents” (priority 2002, published 2003)

What was measured:
[1] = tested on: Panel and outbred (CD-IGS) rat strains; assay: Proteinuria, glucose excretion and renal histology after cisplatin; type: in vivo; details: 5 mg/Kg cisplatin
[2] = tested on: Panel and outbred (CD-IGS) rat strains; assay: Clinical chemistry endpoints of cisplatin-treated vs. vehicle rats; type: in vivo; set-up: T-test value AST / T-test value ALT: unit not given here; details: cisplatin 5 mg/Kg vs. vehicle
[3] = tested on: Panel, CD-IGS and parental rat strains; assay: Plasma triglyceride lowering by clofibrate; type: in vivo; details: between WKY×LEW, WKY×BN and WKY×F344; 250 mg/Kg
Description: Triglyceride levels in plasma were measured following euthanasia on day 7. Plotted are the percent differences in triglyceride values in a particular drug treatment group.

[4] = tested on: rat liver peroxisomal fatty-acyl CoA oxidase; assay: Fluorometric assay of liver peroxisomal fatty-acyl CoA oxidase (FAO) activity after clofibrate; type: in vivo; details: CD-IGS rats
Description: Peroxisomal fractions from livers of each strain were measured for FAO activity. In order to account for intra-strain variability, graphed are the average values derived by subtracting the vehicle FAO (average) from each individual drug induced FAO. The y-axis represents the FAO activity (nmol H2O2 per minute-mg peroximal protein).
The assay was done by using a fluorometric assay for rat liver peroxisomal fafty-acyl CoA oxidase activity (FAO). The first step of this assay uses a palmitoyl-CoA dependent NAD+ reducing system to oxidize FAO and produce H2O2. The H2O2 is then coupled in a peroxidase catalyzed reaction to the oxidation of scopoletin, a naturally fluorescent compound. A fall in fluorescence of the sample indicates an increase in FAO activity which subsequently reflects the increase in the fatty acid oxidase in the liver.
Six clofibrate samples and four vehicle samples were individually tested for FAO activity in duplicate tests. Using an H2O2 standard curve enables the change in fluorescence to be converted to FAO activity units (Walusimbi-Kisitu, M. and E. H. Harrison, J. Lipid Res. 24(8):1077-1084, 1983).

[5] = tested on: Panel, CD-IGS and parental rat strains; assay: Liver histology after clofibrate; type: in vivo
From the text: Hypolipidemic drugs, such as clofibrate, commonly induce peroxisomal proliferation and an increase in the activity of peroxisomal beta-oxidation pathway. We looked for these changes in our rats by histological analysis of a section of the left lateral lobe from livers of either clofibrate or vehicle treated rats. While we could detect cellular differences (e.g. hepatocelluar hypertrophy, hepatocellular vacuolization, anisokaryosis and portal lymphocytic infiltrates) among the clofibrate treated livers versus the vehicle controls within any strain.

[6] = tested on: Panel, CD-IGS and parental rat strains; details: in vivo, 250 mg/kg
Description: Alanine transferase (ALT) levels in plasma an index of liver damage were measured in outbred and inbred strains (top panel) and the Panel F1 hybrids (bottom panel) following euthanasia on day 7. Plotted are the average ALT values for drug (left) and vehicle (right) within a particular drug treatment group (designated by strain). The number of animals tested in each group is denoted below the strain designation in parenthesis as # drug treated animas/#vehicle treated animals.
We delivered the clofibrate orally by gavage (250 mg/Kg in hydroxyproply methyl cellulose) to the rats on 6 consecutive days.

Q: Which results are given for N.N.[Cl][Pt][Cl] [cisplatin]?
A: degree of proteinuria, glucose excretion and histologic damage to renal proximal tubules between the strains [1]: marked differences; T-test value ALB ([2]; BNxF344 rats): 0.111; T-test value ALP ([2]; BNxF344 rats): 0.157; T-test value ALT ([2]; BNxF344 rats): 0.600; T-test value ANION GAP ([2]; BNxF344 rats): 0.069; T-test value AST ([2]; BNxF344 rats): 0.780; T-test value BICARB ([2]; BNxF344 rats): 0.003; T-test value BUN ([2]; BNxF344 rats): 0.002; T-test value CA ([2]; BNxF344 rats): 0.642; T-test value CHOL ([2]; BNxF344 rats): 0.001; T-test value CREAT ([2]; BNxF344 rats): 0.001; T-test value GGT ([2]; BNxF344 rats): 0.351; T-test value GLOB ([2]; BNxF344 rats): 0.116; T-test value GLU ([2]; BNxF344 rats): 0.477; T-test value K ([2]; BNxF344 rats): 0.133; T-test value NA ([2]; BNxF344 rats): 0.851; T-test value PHOS ([2]; BNxF344 rats): 0.230; T-test value TBILI ([2]; BNxF344 rats): 0.005; T-test value TP ([2]; BNxF344 rats): 0.877; T-test value TRIG ([2]; BNxF344 rats): 0.153; T-test value ALB ([2]; CD-IGS rats): 0.096; T-test value ALP ([2]; CD-IGS rats): 0.567; T-test value ALT ([2]; CD-IGS rats): 0.732; T-test value ANION GAP ([2]; CD-IGS rats): 0.440; T-test value AST ([2]; CD-IGS rats): 0.433; T-test value BICARB ([2]; CD-IGS rats): 0.436; T-test value BUN ([2]; CD-IGS rats): 0.003; T-test value CA ([2]; CD-IGS rats): 0.268; T-test value CHOL ([2]; CD-IGS rats): 0.393; T-test value CREAT ([2]; CD-IGS rats): 0.002; T-test value GGT ([2]; CD-IGS rats): 0.351; T-test value GLOB ([2]; CD-IGS rats): 0.750; T-test value GLU ([2]; CD-IGS rats): 0.965; T-test value K ([2]; CD-IGS rats): 0.465; T-test value NA ([2]; CD-IGS rats): 0.095; T-test value PHOS ([2]; CD-IGS rats): 0.943; T-test value TBILI ([2]; CD-IGS rats): 0.742; T-test value TP ([2]; CD-IGS rats): 0.080; T-test value TRIG ([2]; CD-IGS rats): 0.133; T-test value ALB ([2]; LEWxBN rats): 0.000; T-test value ALP ([2]; LEWxBN rats): 0.001; T-test value ALT ([2]; LEWxBN rats): 0.593; T-test value ANION GAP ([2]; LEWxBN rats): 0.058; T-test value AST ([2]; LEWxBN rats): 0.341; T-test value BICARB ([2]; LEWxBN rats): 0.016; T-test value BUN ([2]; LEWxBN rats): 0.000; T-test value CA ([2]; LEWxBN rats): 0.333; T-test value CHOL ([2]; LEWxBN rats): 0.000; T-test value CREAT ([2]; LEWxBN rats): 0.000; T-test value GGT ([2]; LEWxBN rats): 0.339; T-test value GLOB ([2]; LEWxBN rats): 0.007; T-test value GLU ([2]; LEWxBN rats): 0.024; T-test value K ([2]; LEWxBN rats): 0.036; T-test value NA ([2]; LEWxBN rats): 0.230; T-test value PHOS ([2]; LEWxBN rats): 0.063; T-test value TBILI ([2]; LEWxBN rats): 0.463; T-test value TP ([2]; LEWxBN rats): 0.148; T-test value TRIG ([2]; LEWxBN rats): 0.085; T-test value ALB ([2]; LEWxF344 rats): 0.534; T-test value ALP ([2]; LEWxF344 rats): 0.214; T-test value ALT ([2]; LEWxF344 rats): 0.979; T-test value ANION GAP ([2]; LEWxF344 rats): 0.711; T-test value AST ([2]; LEWxF344 rats): 0.739; T-test value BICARB ([2]; LEWxF344 rats): 0.596; T-test value BUN ([2]; LEWxF344 rats): 0.000; T-test value CA ([2]; LEWxF344 rats): 0.448; T-test value CHOL ([2]; LEWxF344 rats): 0.000; T-test value CREAT ([2]; LEWxF344 rats): 0.000; T-test value GLOB ([2]; LEWxF344 rats): 0.361; T-test value GLU ([2]; LEWxF344 rats): 0.695; T-test value K ([2]; LEWxF344 rats): 0.152; T-test value NA ([2]; LEWxF344 rats): 0.738; T-test value PHOS ([2]; LEWxF344 rats): 0.831; T-test value TBILI ([2]; LEWxF344 rats): 0.663; T-test value TP ([2]; LEWxF344 rats): 0.492; T-test value TRIG ([2]; LEWxF344 rats): 0.540; T-test value ALB ([2]; Panel (all six strains)): 0.000; T-test value ALP ([2]; Panel (all six strains)): 0.000; T-test value ALT ([2]; Panel (all six strains)): 0.693; T-test value ANION GAP ([2]; Panel (all six strains)): 0.014; T-test value AST ([2]; Panel (all six strains)): 0.227; T-test value BICARB ([2]; Panel (all six strains)): 0.000; T-test value BUN ([2]; Panel (all six strains)): 0.000; T-test value CA ([2]; Panel (all six strains)): 0.974; T-test value CHOL ([2]; Panel (all six strains)): 0.000; T-test value CREAT ([2]; Panel (all six strains)): 0.000; T-test value GGT ([2]; Panel (all six strains)): 0.024; T-test value GLOB ([2]; Panel (all six strains)): 0.016; T-test value GLU ([2]; Panel (all six strains)): 0.561; T-test value K ([2]; Panel (all six strains)): 0.000; T-test value NA ([2]; Panel (all six strains)): 0.414; T-test value PHOS ([2]; Panel (all six strains)): 0.004; T-test value TBILI ([2]; Panel (all six strains)): 0.027; T-test value TP ([2]; Panel (all six strains)): 0.487; T-test value TRIG ([2]; Panel (all six strains)): 0.058; T-test value ALB ([2]; WKYxBN rats): 0.337; T-test value ALP ([2]; WKYxBN rats): 0.956; T-test value ALT ([2]; WKYxBN rats): 0.222; T-test value ANION GAP ([2]; WKYxBN rats): 0.485; T-test value AST ([2]; WKYxBN rats): 0.189; T-test value BICARB ([2]; WKYxBN rats): 0.649; T-test value BUN ([2]; WKYxBN rats): 0.001; T-test value CA ([2]; WKYxBN rats): 0.064; T-test value CHOL ([2]; WKYxBN rats): 0.000; T-test value CREAT ([2]; WKYxBN rats): 0.002; T-test value GGT ([2]; WKYxBN rats): 0.170; T-test value GLOB ([2]; WKYxBN rats): 0.007; T-test value GLU ([2]; WKYxBN rats): 0.968; T-test value K ([2]; WKYxBN rats): 0.014; T-test value NA ([2]; WKYxBN rats): 0.165; T-test value PHOS ([2]; WKYxBN rats): 0.081; T-test value TBILI ([2]; WKYxBN rats): 0.379; T-test value TP ([2]; WKYxBN rats): 0.458; T-test value TRIG ([2]; WKYxBN rats): 0.210; T-test value ALB ([2]; WKYxF344 rats): 0.001; T-test value ALP ([2]; WKYxF344 rats): 0.000; T-test value ALT ([2]; WKYxF344 rats): 0.604; T-test value ANION GAP ([2]; WKYxF344 rats): 0.868; T-test value AST ([2]; WKYxF344 rats): 0.934; T-test value BICARB ([2]; WKYxF344 rats): 0.004; T-test value BUN ([2]; WKYxF344 rats): 0.000; T-test value CA ([2]; WKYxF344 rats): 0.037; T-test value CHOL ([2]; WKYxF344 rats): 0.004; T-test value CREAT ([2]; WKYxF344 rats): 0.000; T-test value GLOB ([2]; WKYxF344 rats): 0.007; T-test value GLU ([2]; WKYxF344 rats): 0.155; T-test value K ([2]; WKYxF344 rats): 0.583; T-test value NA ([2]; WKYxF344 rats): 0.872; T-test value PHOS ([2]; WKYxF344 rats): 0.282; T-test value TBILI ([2]; WKYxF344 rats): 0.008; T-test value TP ([2]; WKYxF344 rats): 0.054; T-test value TRIG ([2]; WKYxF344 rats): 0.041; T-test value ALB ([2]; WKYxLEW rats): 0.453; T-test value ALP ([2]; WKYxLEW rats): 0.342; T-test value ALT ([2]; WKYxLEW rats): 0.874; T-test value ANION GAP ([2]; WKYxLEW rats): 0.033; T-test value AST ([2]; WKYxLEW rats): 0.689; T-test value BICARB ([2]; WKYxLEW rats): 0.266; T-test value BUN ([2]; WKYxLEW rats): 0.009; T-test value CA ([2]; WKYxLEW rats): 0.870; T-test value CHOL ([2]; WKYxLEW rats): 0.019; T-test value CREAT ([2]; WKYxLEW rats): 0.025; T-test value GGT ([2]; WKYxLEW rats): 0.363; T-test value GLOB ([2]; WKYxLEW rats): 0.057; T-test value GLU ([2]; WKYxLEW rats): 0.289; T-test value K ([2]; WKYxLEW rats): 0.137; T-test value NA ([2]; WKYxLEW rats): 1.000; T-test value PHOS ([2]; WKYxLEW rats): 0.055; T-test value TBILI ([2]; WKYxLEW rats): 0.364; T-test value TP ([2]; WKYxLEW rats): 0.008; T-test value TRIG ([2]; WKYxLEW rats): 0.677

Q: Which “variation in magnitude of the fall in plasma triglyceride levels” value [3] does the source give for CCOC(=O)C(C)(C)Oc1ccc(Cl)cc1 [clofibrate] here?
A: 3 fold

Q: What about the “hepatotoxic effects relative to other strains (FAO activity)” value [4] of the same compound?
A: resistant

Q: What about the liver hypertrophy ([5]; all the strains) of the same compound?
A: hypertrophy of the liver

Q: What about the “histopathology differences between the strains within the Panel” value ([5]; left lateral lobe sections, clofibrate vs. vehicle) of the same compound?
A: no quantitative differences

Q: And the “AST levels (predictor of liver toxicity)” value [6]?
A: not significantly affected
